Test results: ChEMBL document CHEMBL1201862, “PubChem BioAssay data set” (2004)
Calls of active or inactive are those of the source. Rule as the data show it, for most assays here: actives have a measured EC50 and inactives only a lower limit.

Experiments:
[1] = NIH3T3 cell viability loss – ATP luminescence, mouse fibroblasts, counter-screen, dose response (AID 2010); type: functional, cell-based;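 also: cells exposed to compound for about 90 hours before reading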
[2] = Trypanosoma cruzi growth suppression in host cells – NIH3T3 host cells, beta-gal luminescence, confirmation (AID 2044); type: functional, cell-based;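 also: intracellular parasites grown in NIH/3T3 mouse fibroblasts as host cells; luminescent beta-galactosidase reporter signal from transgenic T. cruzi replicating inside host cells; inhibitors lower the luminescence signal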
Cytochrome P450 1A2 = target: T1, Cytochrome P450 1A2 (Homo sapiens, UniProt P05177);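 also: PubChem cytochrome P450 panel assay, CYP1A2 panel member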
T1 sequence (P05177 whole entry): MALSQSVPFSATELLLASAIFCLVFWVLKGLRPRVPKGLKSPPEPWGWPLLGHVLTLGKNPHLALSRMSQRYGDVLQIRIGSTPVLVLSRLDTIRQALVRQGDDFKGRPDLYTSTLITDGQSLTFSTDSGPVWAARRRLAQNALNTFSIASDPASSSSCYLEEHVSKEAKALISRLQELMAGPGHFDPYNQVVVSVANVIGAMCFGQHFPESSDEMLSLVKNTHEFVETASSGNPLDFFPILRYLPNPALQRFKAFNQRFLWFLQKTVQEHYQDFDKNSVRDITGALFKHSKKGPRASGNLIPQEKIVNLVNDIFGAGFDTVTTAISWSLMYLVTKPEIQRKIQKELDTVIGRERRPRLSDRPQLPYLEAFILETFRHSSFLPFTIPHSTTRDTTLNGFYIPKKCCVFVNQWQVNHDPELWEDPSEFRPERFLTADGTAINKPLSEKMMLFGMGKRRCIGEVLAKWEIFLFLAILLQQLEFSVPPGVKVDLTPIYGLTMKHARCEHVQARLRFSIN

Protein RecA = target: T2, Protein RecA (Mycobacterium tuberculosis, UniProt P9WHJ3); assay: Fluorescence Cell-Free Homogeneous Dose Retest to Identify Inhibitors of RecA-Intein Splicing Activity. [Related pubchem assays (depositor defined):AID2097, AID2223, AID489010, AID492950]; type: functional
T2 sequence (P9WHJ3 whole entry): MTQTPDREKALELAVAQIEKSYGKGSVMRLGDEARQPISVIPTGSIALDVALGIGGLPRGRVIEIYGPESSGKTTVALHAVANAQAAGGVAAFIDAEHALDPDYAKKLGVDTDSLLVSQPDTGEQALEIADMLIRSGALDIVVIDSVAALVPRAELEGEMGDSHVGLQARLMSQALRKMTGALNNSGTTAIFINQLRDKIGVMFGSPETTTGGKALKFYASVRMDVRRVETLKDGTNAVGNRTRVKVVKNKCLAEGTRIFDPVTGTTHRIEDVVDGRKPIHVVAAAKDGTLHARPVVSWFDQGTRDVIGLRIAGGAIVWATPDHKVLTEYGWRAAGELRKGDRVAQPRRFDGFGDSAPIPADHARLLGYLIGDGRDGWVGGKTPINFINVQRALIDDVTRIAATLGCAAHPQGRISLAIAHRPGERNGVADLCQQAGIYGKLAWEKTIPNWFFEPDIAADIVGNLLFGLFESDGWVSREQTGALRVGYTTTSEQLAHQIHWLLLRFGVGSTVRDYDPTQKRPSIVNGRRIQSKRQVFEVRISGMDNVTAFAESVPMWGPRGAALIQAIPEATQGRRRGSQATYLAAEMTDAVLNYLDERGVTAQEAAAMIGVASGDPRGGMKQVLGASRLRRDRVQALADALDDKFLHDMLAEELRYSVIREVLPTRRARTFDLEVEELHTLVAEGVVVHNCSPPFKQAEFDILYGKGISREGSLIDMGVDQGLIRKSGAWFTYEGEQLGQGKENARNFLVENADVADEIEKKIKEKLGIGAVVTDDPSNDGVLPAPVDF

[3] = target: T3, Replicative DNA helicase DnaB (Mycobacterium tuberculosis, UniProt P9WMR3); assay: DnaB intein splicing inhibitors, dose response, biochemical, cell-free fluorescence (AID 449749); type: functional
T3 sequence (P9WMR3 whole entry): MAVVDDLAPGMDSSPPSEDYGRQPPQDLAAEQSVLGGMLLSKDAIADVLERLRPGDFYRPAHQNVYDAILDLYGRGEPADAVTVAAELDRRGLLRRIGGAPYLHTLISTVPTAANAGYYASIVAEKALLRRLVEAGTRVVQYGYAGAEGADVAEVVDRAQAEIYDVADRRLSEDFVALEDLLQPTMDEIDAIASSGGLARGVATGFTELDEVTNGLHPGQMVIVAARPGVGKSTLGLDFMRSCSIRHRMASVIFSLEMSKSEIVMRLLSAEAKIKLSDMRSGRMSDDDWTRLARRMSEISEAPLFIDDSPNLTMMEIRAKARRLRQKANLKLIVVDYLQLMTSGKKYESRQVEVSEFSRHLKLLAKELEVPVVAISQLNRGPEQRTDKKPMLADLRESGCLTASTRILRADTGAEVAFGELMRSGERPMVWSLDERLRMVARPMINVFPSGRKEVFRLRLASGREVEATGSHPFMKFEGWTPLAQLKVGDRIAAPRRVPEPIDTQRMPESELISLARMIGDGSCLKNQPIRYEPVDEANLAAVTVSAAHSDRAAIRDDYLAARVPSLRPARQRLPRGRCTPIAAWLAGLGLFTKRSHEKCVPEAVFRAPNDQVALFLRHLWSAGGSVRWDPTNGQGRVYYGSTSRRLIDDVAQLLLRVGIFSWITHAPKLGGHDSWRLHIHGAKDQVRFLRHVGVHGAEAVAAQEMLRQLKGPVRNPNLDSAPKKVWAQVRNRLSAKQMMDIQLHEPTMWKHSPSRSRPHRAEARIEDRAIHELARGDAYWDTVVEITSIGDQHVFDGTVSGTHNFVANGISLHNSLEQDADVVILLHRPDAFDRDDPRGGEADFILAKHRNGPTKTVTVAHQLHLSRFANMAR

[4] = viability of uninfected HEp-2 cells – cell-based, HTS, cytotoxicity control for RSV inhibitor project, dose response (AID 2410); type: functional; settings: human respiratory syncytial virus
[5] = system: Streptococcus sp. 'group A'; assay: Streptococcus pyogenes SK(-)GAS viability under kanamycin – luminescence, BacTiterGlo, confirmation, counter-screen for streptokinase expression inhibitor project, dose response (AID 1900); type: functional, organism-based
Streptococcus = assay: GAS UMAA2166 growth inhibition – luminescence, BacTiterGlo, counter-screen for streptokinase expression inhibitor project, dose response (AID 1915); type: functional, organism-based;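 also: potency for reduction of bacterial viability or growth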

Cc1ccc(NP(=O)(c2ccc(N(C)C)cc2NC(=O)c2cccs2)N2CCOCC2)cc1Cl (stereo unspecified)
EC50 [1]: > 30 µM (not active) | EC50 [2]: 1.9 µM (active)

O=C(COC(=O)c1c2c(nc3ccccc13)/C(=C\c1cccs1)CCC2)Nc1ccccc1Cl
EC50 [1]: > 60 µM (not active) | EC50 [2]: 1.73 µM (active)

COc1ccc(-n2c(=O)c(-c3cn(C)c4ccccc34)nc3cnc(N4CCOCC4)nc32)cc1
AC50 (Cytochrome P450 1A2): 31.6 µM (inconclusive)

O=C(C1=C[C@H](c2ccc(Br)cc2)C[C@H](OCCCCO)O1)N1CCN(Cc2ccccc2)CC1
EC50 [1]: > 60 µM (not active) | EC50 [2]: 0.874 µM (active)

C[C@@H](C(=O)NCc1ccccn1)[C@@H]1C[C@@]1(C)[C@@H](NC(=O)OCc1ccccc1)c1ccccc1
AC50 (Cytochrome P450 1A2): 20 µM (inconclusive)

O=S(=O)(c1ccccc1)N1CCC[C@@]2(CCN(c3cccc(-c4ccccc4)c3)C2)C1
AC50 (Cytochrome P450 1A2): 15.8 µM (inconclusive)

O=C(NC1CCCCCC1)c1cccnc1S
EC50 [1]: > 60 µM (inconclusive) | EC50 [2]: 8.39 µM (active)

Clc1ccc(N2CCCCCC2)nn1
AC50 (Cytochrome P450 1A2): 15.8 µM (inconclusive)

N#C/C(=C/c1ccncc1)c1nc2ccccc2s1
EC50 (Protein RecA): 1.67 µM (active) | AC50 [3]: > 120 µM (inactive)

CCOC(=O)c1ccc(-n2ccnc2)c(NC(=O)c2cccc(Br)c2)c1
EC50 [1]: > 60 µM (not active) | EC50 [2]: 0.281 µM (active)

Cc1nn(C)cc1CN1CCCC(C(=O)c2ccc(-c3ccccc3)cc2)C1 (stereo unspecified)
EC50 [1]: > 60 µM (not active) | EC50 [2]: 0.123 µM (active)

Cc1sc(NC(=O)CSC2=NCCS2)nc1-c1ccccc1
EC50 (Protein RecA): 4.25 µM (active) | AC50 [3]: 12.7 µM (active)

COc1ccc(Cl)cc1N=C(S)NCCC(c1ccccc1)c1ccccc1
EC50 [1]: > 60 µM (not active) | EC50 [2]: 1.44 µM (active)

CCOC(=O)c1[nH]c2ccc(OC)cc2c1C(SCC(=O)O)c1ccc(C(F)(F)F)cc1 (stereo unspecified)
CC50 [4]: 21.1 µM (active)

N#CC1=C(N)C(C#N)(C#N)[C@H](c2c(F)cccc2F)[C@H]2CC3(CC=C12)OCCO3
EC50 (Protein RecA): 22.2 µM (active) | AC50 [3]: > 380 µM (inactive)

Cc1noc(C)c1-c1cncnc1Nc1ccccc1
AC50 (Cytochrome P450 1A2): 25.1 µM (inconclusive)

Cc1ccc(CNC(=O)CCC2CCCN(Cc3ccc4cccc(F)c4n3)C2)o1 (stereo unspecified)
EC50 [1]: > 60 µM (not active) | EC50 [2]: 0.791 µM (active)

COC(=O)C1=NN(C(C)=O)C2(CC(=O)N(c3cc(C)cc(C)c3)C2=O)C1 (stereo unspecified)
EC50 (Protein RecA): > 380 µM (inactive) | AC50 [3]: > 380 µM (inactive)

Cc1ccc(N2CCN(C(=O)C3CCCN(c4ncnc5c4nc4n5CCCCC4)C3)CC2)c(C)c1 (stereo unspecified)
CC50 [4]: 9.35 µM (active)

N#CC1=C(N)Oc2[nH]nc(-c3cccs3)c2C1c1ccco1 (stereo unspecified)
EC50 (Protein RecA): 7.2 µM (active) | AC50 [3]: 8.22 µM (active)

Cc1nc(-c2ccccn2)nc(SCC(=O)c2ccccc2)c1Cl
EC50 [5]: 3.92 µM (active) | EC50 (Streptococcus): 11.4 µM (active)

COc1ccc(C)cc1NC(=O)CN1CCN(S(=O)(=O)c2ccc(C(C)C)cc2)CC1
EC50 [1]: > 30 µM (not active) | EC50 [2]: 1.79 µM (active)

Cc1nc2ccccc2c2c1C(=O)N(Cc1cccnc1)C2=O
EC50 (Protein RecA): 1.02 µM (active) | AC50 [3]: 32.8 µM (active)

CCCOc1ccc(C(=O)NNC(=S)NC(=O)c2cc(-c3ccccc3)nc3ccccc23)cc1
AC50 (Cytochrome P450 1A2): 17.8 µM (inconclusive)

CS(=O)(=O)N1CCC(Oc2ccccc2C(=O)N2CCCCC2CO)CC1 (stereo unspecified)
EC50 (Protein RecA): > 380 µM (inactive) | AC50 [3]: > 380 µM (inactive)

O=[N+]([O-])c1ccc(S(=O)(=O)N2CCN(c3ccnc4cc(Cl)ccc34)CC2)cc1
EC50 [1]: > 60 µM (not active) | EC50 [2]: 0.581 µM (active)

C=C(C)COc1ccc(-c2nc(N)nc(C(F)(F)F)c2-c2ccc(OC)cc2)c(O)c1
EC50 [1]: > 60 µM (not active) | EC50 [2]: 2 µM (active)

Cc1c(C(=O)N2CCc3ccccc3C2)sc2nc(-c3ccccc3)cn12
CC50 [4]: 30.3 µM (active)

COc1ccc(-c2ccc(-c3noc(-c4ccccc4)n3)c(OC)n2)cc1
CC50 [4]: 36.4 µM (active)

CC(C)c1ccccc1OCC(O)CN1CCN(S(=O)(=O)c2ccc([N+](=O)[O-])cc2)CC1 (stereo unspecified)
EC50 [1]: > 60 µM (not active) | EC50 [2]: 0.409 µM (active)

CCn1c2ccccc2c2cc(NC(=O)c3ccc(Br)o3)ccc21
CC50 [4]: 27.8 µM (active)

COc1ccc(NC(=O)c2cccc(N3C(=O)C4C5C=CC(C5)C4C3=O)c2)cc1Cl (stereo unspecified)
EC50 (Protein RecA): 18.5 µM (active) | AC50 [3]: > 380 µM (inactive)

CC(C)(C)c1ccc(C(=O)Cn2cnnc2C#N)cc1
EC50 (Protein RecA): 20 µM (active) | AC50 [3]: 48.9 µM (active)

COc1ccc(C2C(C#N)=C(N)Oc3c2c(C)nn3-c2ccccc2)cc1Cn1nc(C)c([N+](=O)[O-])c1C (stereo unspecified)
EC50 (Protein RecA): 10.5 µM (active) | AC50 [3]: 2.95 µM (active)

COCc1n[nH]c2c1C(c1cccc(OC)c1)C(C#N)=C(N)O2 (stereo unspecified)
EC50 (Protein RecA): 27 µM (active) | AC50 [3]: 40 µM (active)

Clc1ccccc1-c1ncc2ccccn12
EC50 [1]: > 60 µM (not active) | EC50 [2]: 2.45 µM (active)

Cc1onc(-c2ccc(Cl)cc2Cl)c1-c1csc(N/N=C/c2ccccc2Cl)n1
EC50 [1]: 13.9 µM (active) | EC50 [2]: 2.08 µM (active)

O=C(N/N=C/c1nn(-c2ccccc2)cc1-c1ccc(Cl)cc1)c1ccncc1
CC50 [4]: 10.1 µM (active)

COc1cc(/C=N/NC(=O)c2nnn(-c3nonc3N)c2C(C)C)ccc1OCc1ccccc1
CC50 [4]: 14 µM (active)

C/C(CC(=O)Nc1cc(C)ccn1)=N\NC(=O)c1ccc(C)cc1
EC50 (Protein RecA): 8.13 µM (active) | AC50 [3]: 24.4 µM (active)

CC(=O)/N=c1\sc2c3ccccc3ccc2n1C
EC50 [1]: > 30 µM (not active) | EC50 [2]: 0.643 µM (active)

c1ccc2sc(C3CCNCC3)nc2c1
EC50 [1]: > 60 µM (not active) | EC50 [2]: 2.58 µM (active)

Cc1c(-c2ccccc2)oc2c(C(=O)OCCN3CCCCC3)cccc2c1=O [FLAVOXATE]
AC50 (Cytochrome P450 1A2): 6.31 µM (inconclusive)

COc1c(N2CCNC(C)C2)c(F)cc2c(=O)c(C(=O)O)cn(C3CC3)c12 (stereo unspecified) [GATIFLOXACIN]
EC50 [5]: 0.66 µM (active) | EC50 (Streptococcus): 1.09 µM (active)

CC(C)=CCc1cc([C@@H]2CC(=O)c3ccc(O)c(CC=C(C)C)c3O2)ccc1O [GLABROL]
EC50 [5]: 6.4 µM (active) | EC50 (Streptococcus): 5.43 µM (active)
